Like-named read-outs stand apart in the source and are kept apart here.
Columns and labels:
Assay type in all cases: in vivo
Male C57Bl/6J mice [1] = test: Amphetamine-induced hyperlocomotion assay; design: key: +++ = <1.0 mg/kg; ++ = 1-10 mg/kg; + = 10-30 mg/kg; NE = no effect; conditions: AMPH 4 mg/kg ip; stimulant-induced hyperactivity
Method: Amphetamine-Induced Hyperlocomotion Assay
Amphetamine (AMPH) is frequently used to induce or mimic a manic-like state. The antimanic-like effects of test compounds were evaluated in male C57Bl/6J mice. Mice were acclimatized to the experimental room for at least 1 hour prior to testing. The mice (n=10 per group) were administered vehicle or test compound and placed in the open field (OF) chambers for 30 minutes of baseline activity measurement. The mice were then injected with either water or AMPH (4 mg/kg, ip) and placed back in the OF chambers for a 60-minute testing session during which, the effects of test compounds on stimulant-induced hyperactivity behaviors (total distance traveled, rearing and stereotypy) were measured. Data were analyzed by analysis of variance (ANOVA) followed by post-hoc comparisons with Fisher Tests when appropriate.

Adult male AJ mice = test: Tail suspension test (TST); design: key: +++ = <1.0 mg/kg; ++ = 1-10 mg/kg; + = 10-30 mg/kg; NE = no effect; conditions: oral gavage 30 min before test; time immobile
Description: The tail suspension test (TST) is a rodent screening test for potential (human) antidepressant drugs. It is based on the assumption that an animal will actively try to escape an aversive (stressful) stimulus. If escape is impossible, the animal will eventually stop trying (“give up”). In the TST, a mouse is suspended by the tail so that its body dangles in the air, head downward. Mice initially struggle to face upward and climb to a solid surface. When the animal stops struggling and hangs immobile it is considered to have “given up”. Shorter periods of immobility are characteristic of antidepressant-like activity. Accordingly, longer periods of immobility are considered indicative of a depressive-like state. It has been shown that treatment with an antidepressant drug will decrease the time the animal spends immobile. See generally L. Stem et al., Psychopharmacology (Berl). 1985; 85(3):367-70; B. Thierry et al., Psychopharmacology 1986; 90:284-85.
Procedure. Adult male AJ mice from Jackson Laboratories received vehicle (sterile water) or test compound orally by gavage, or the positive control desipramine (20 mg/kg, i.p.), in 10 mL/kg injection volumes, 30 min before being subjected to the Tail Suspension Test. In this test, mice are placed in the Tail Suspension chambers (white polyvinylchloride cubicles measuring 33×33×31.75 cm Med Associates, Inc. St. Albans, Vt.) by a piece of transparent (Scotch®) tape attached to the tail, from about the mid-tail, with approximately 2 cm of tape past the end of the tail for 10 min during which the time spent immobile is measured. A reduction in total time immobile relative to the vehicle condition indicates an antidepressant drug-like response.

mice = test: Neuropharmacological Assay (SmartCube); conditions: for minimal effective dose: Mus musculus, read-out: POTENCY (minimal effective dose, MED); for AD: ADHD (SmartCube probability) / AG: analgesic (SmartCube probability) / AX: anxiolytic (SmartCube probability) / CE: cognitive enhancer (SmartCube probability) / DP: anti-depressant (SmartCube probability) / MS: mood stabilizer (SmartCube probability) / PS: anti-psychotic (SmartCube probability) / SD: sedative hypnotic (SmartCube probability) / UN: uncharacterized CNS activity (SmartCube probability): mice, i.p. 15 min before test, most efficacious dose(s) of 3 doses
How it was run: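 Compounds in NMP/PEG/propylene glycol given i.p. 15 min before automated video-based behavioral testing, at 3 doses; behavioral signature compared with a reference-compound database to give probability per drug class, reported at most efficacious dose. MED = dose (mpk) giving ≥50% total activity; doses typically 0.3–30 mpk.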

Male Balb/cJ mice = test: Forced Swim test (FST); conditions: 30 minute pretreatment; time immobile over 6 minute trial
Method: Forced Swim Test Procedures
The Forced Swim test (FST) is an indicator of the antidepressant-like activity of a test compound. Male Balb/cJ mice (26-31 g) were given a 30 minute pretreatment with vehicle (sterile water), sertraline control or test compound. The FST consists of one 6 minute session of forced swimming in individual opaque cylinders containing water at a temperature of 23±2° C. The mouse will swim before “giving up” and becoming immobile, the time spent immobile was recorded over the 6 minute trial. A compound with antidepressant-like activity will decrease the time the mouse is immobile over the 6 minute trial. Data were analyzed by analysis of variance (ANOVA) followed by post-hoc comparisons with Fisher Tests when appropriate.

Male C57Bl/6J mice [2] = test: Phencyclidine (PCP)-induced hyperlocomotion; conditions: PCP 2.5 mg/kg s.c.; distance traveled
Method: Phencyclidine (PCP)-Induced Hyperlocomotion
The PCP-induced hyperlocomotion assay is an indicator of antipsychotic-like activity. Male C57Bl/6J mice (20-26 g) were administered vehicle or test compound and placed in holding cages for 30 minutes, after which they were placed in the locomotor activity chambers for 30 minutes of baseline capture. The test chambers are Plexiglas rectangular chambers (24×45 cm) that fit inside two steel frames (9.5×18 inches) and are fitted with two-dimensional 4×8 beam grids to monitor horizontal and vertical locomotor activity. Total distance traveled was measured from horizontal beam breaks as the animal traveled. Following the 30 minute baseline period, all […] were injected with saline or PCP (2.5 mg/kg, s.c.) and returned to the locomotor activity chambers for a 60 minute test session. A compound with antipsychotic-like activity will decrease the distance traveled following administration of PCP. Data were analyzed by analysis of variance (ANOVA) followed by post-hoc comparisons with Fisher Tests when appropriate.

[3] = MED = dose having 50% or more total activity in SmartCube

Structure (SMILES)	AMPH: efficacious dose (Male C57Bl/6J mice [1])	TST: efficacious dose (Adult male AJ mice)	minimal effective dose (mice; [3]) [mg/kg]	AD: ADHD (SmartCube probability) (mice)	AG: analgesic (SmartCube probability) (mice)	AX: anxiolytic (SmartCube probability) (mice)	CE: cognitive enhancer (SmartCube probability) (mice)	DP: anti-depressant (SmartCube probability) (mice)	MS: mood stabilizer (SmartCube probability) (mice)	PS: anti-psychotic (SmartCube probability) (mice)	SD: sedative hypnotic (SmartCube probability) (mice)	UN: uncharacterized CNS activity (SmartCube probability) (mice)	FST: efficacious dose (Male Balb/cJ mice)	PCP: efficacious dose (Male C57Bl/6J mice [2])	minimal effective dose (mice) [mg/kg]
CNC[C@@H]1OCCc2c(F)cccc21 [Example 14, (R)-1-(5-fluoroisochroman-1-yl)-N-methylmethanamine]	+ (+ = 10-30 mg/kg)	+ (+ = 10-30 mg/kg)	< 3	+ (LOQ≤ + <5%)	++ (5%≤ ++ <25%)	++ (5%≤ ++ <25%)	++ (5%≤ ++ <25%)	++++ (50%≤ ++++)	++ (5%≤ ++ <25%)	++ (5%≤ ++ <25%)	++ (5%≤ ++ <25%)	+++ (25%≤ +++ <50%)	–	–	–
CNC[C@@H]1OCCc2cccc(F)c21 [Example 26, (R)-1-(8-fluoroisochroman-1-yl)-N-methylmethanamine]	+ (+ = 10-30 mg/kg)	NE	< 3	+ (LOQ≤ + <5%)	++ (5%≤ ++ <25%)	++ (5%≤ ++ <25%)	++ (5%≤ ++ <25%)	++++ (50%≤ ++++)	+ (LOQ≤ + <5%)	++ (5%≤ ++ <25%)	++ (5%≤ ++ <25%)	+++ (25%≤ +++ <50%)	+++ (+++ = <1.0 mg/kg)	+++ (+++ = <1.0 mg/kg)	–
CNC[C@@H]1OCCc2ccc3c(c21)OCO3 [Example 2, (R)-1-(6,9-dihydro-7H-[1,3]dioxolo[4,5-h]isochromen-9-yl)-N-methylmethanamine]	NE	–	–	+ (LOQ≤ + <5%)	++ (5%≤ ++ <25%)	++ (5%≤ ++ <25%)	++ (5%≤ ++ <25%)	+++ (25%≤ +++ <50%)	++ (5%≤ ++ <25%)	++ (5%≤ ++ <25%)	+ (LOQ≤ + <5%)	+++ (25%≤ +++ <50%)	+++ (+++ = <1.0 mg/kg)	+++ (+++ = <1.0 mg/kg)	< 3
CNC[C@@H]1OCCc2cc(F)ccc21 [Example 17, (R)-1-(6-fluoroisochroman-1-yl)-N-methylmethanamine]	++ (++ = 1-10 mg/kg)	NE	< 3	+ (LOQ≤ + <5%)	++ (5%≤ ++ <25%)	++ (5%≤ ++ <25%)	+++ (25%≤ +++ <50%)	++ (5%≤ ++ <25%)	+ (LOQ≤ + <5%)	+++ (25%≤ +++ <50%)	+ (LOQ≤ + <5%)	++ (5%≤ ++ <25%)	–	–	–
NC[C@@H]1OCCc2c(F)cccc21 [Example 29, (R)-(5-fluoroisochroman-1-yl)methanamine]	–	–	3 to 10	+ (LOQ≤ + <5%)	++ (5%≤ ++ <25%)	++ (5%≤ ++ <25%)	++ (5%≤ ++ <25%)	++++ (50%≤ ++++)	+ (LOQ≤ + <5%)	+ (LOQ≤ + <5%)	+ (LOQ≤ + <5%)	++ (5%≤ ++ <25%)	–	–	–
CNC[C@H]1OC[C@@H](F)c2ccccc21 [Example 21, 1-((1S,4S)-4-fluoroisochroman-1-yl)-N-methylmethanamine]	–	–	3 to 10	+ (LOQ≤ + <5%)	+++ (25%≤ +++ <50%)	++ (5%≤ ++ <25%)	++ (5%≤ ++ <25%)	++ (5%≤ ++ <25%)	+ (LOQ≤ + <5%)	++ (5%≤ ++ <25%)	++ (5%≤ ++ <25%)	+++ (25%≤ +++ <50%)	–	–	–
Cc1cccc2c1CCO[C@H]2CN [Example 73, (R)-(5-methylisochroman-1-yl)methanamine]	–	–	< 3	+ (LOQ≤ + <5%)	+ (LOQ≤ + <5%)	++ (5%≤ ++ <25%)	++ (5%≤ ++ <25%)	+++ (25%≤ +++ <50%)	+ (LOQ≤ + <5%)	+ (LOQ≤ + <5%)	++ (5%≤ ++ <25%)	++++ (50%≤ ++++)	–	–	–
